What was measured:
[1] = estimated; cited from earlier work
mouse sperm = experiment: Mouse sperm motility and progressivity (CASA system, Hamilton-Thorne); assay type: cell-based; conditions: for difference in treated mouse sperm compared to controls: motility/progressivity
Experimental: Extract epididymis and open them in CPA medium (18% Raffinose and 3% Low fat milk powder). Let spermatozoids swim out for 5 min at room temperature.
For each condition, take 4 μl of mouse sperm in CPA and place in 196 μl of HTF medium from the incubator (at 37° C.). Let it incubate 5 min. in the 37° C. incubator, add substances to the HTF medium (see formulation below) and incubate for different times.
At each time point, fill a Leja-Slide with 25 μl of the HTF buffer containing the diluted sperm and place in the sperm counting machine (Hamilton-Thorne, USA). The machine takes 10 pictures per samples and analyses the different parameters (motility, progressivity,etc. . . . ). Sperm motility analysis was done blindly. Glycolic acid and […] were given to the technician from the facility as Substance 1 and Substance 2, only later did […] get to know which belong to what compound.
(§1) The examples tested the effect of 10 to 30 mM of glycolic acid and D-lactate on mouse sperm motility and progressivity or on bull motility. For this, epididymic mouse sperm from two strains (WT and DJ-1) or ejaculated frozen bull sperm was obtained. Sperm from each individual was divided and treated either with glycolic acid or with the vehicle for up to 90 minutes. Mouse sperm motility and progressivity was determined with the help of an automatized machine (CASA system, Hamilton-Thorne Research, http://www.hamiltonthorne.com/index.php/products/casa-products/sperm-analysis-systems-research) that uses high frequency photo images and image analysis to analyze these parameters. Frozen ejaculated bull sperm motility was assessed by an experienced technician. Mouse sperm from WT and DJ-1 mice was divided by the software into motile and non-motile sperm according to standardized parameters and results are given as percentages of the total population identified as motile sperm (FIG. 1-4). Sperm progressivity alone was analyzed only on the mouse sperm, as only the software from the CASA system is sensitive enough to make this analysis and this machine can only analyze mouse sperm. Bull sperm was divided into progressive motile, motile (the sum of progressive motile and motile on the spot) and the rest (FIGS. 5, 6 and 7).

[2] = tested on: sperm mitochondrial membrane potential; experiment: Mitochondrial membrane potential of sperm (JC-1 and FACS sorting); assay type: cell-based; conditions: JC-1, FACS; normalized to control at time-point 0; FIG. 8
Excerpt: (§2) This enhancement can be observed in human sperm, both defrosted and fresh, and defrosted bull sperm. Two-way ANOVA analysis was used (much more restrictive than a t-Test). * means p<0.05, **p<0.01, ***p<0.001 and […]. […] Both sperm motility and mitochondrial measurements are normalized to a control at time-point 0.

bull sperm = experiment: Bull sperm motility and progressive motility, defrosted sperm, assessed by technician; assay type: cell-based
Experimental: Frozen bull sperm was defrosted in a warm bath and centrifuged. The supernatant was removed and the sperms were resuspended in HTF-like medium alone or with glycolic acid. Sperms were incubated with the 10, 20 and 30 mM glycolic acid for 10 min. before the measurements began. Measurements were performed by an experienced technician from the urology department.
as §1

human sperm = experiment: Human sperm motility, fresh and defrosted sperm; assay type: cell-based; conditions: 30 and 60 mM, significant (p<0.05) over whole experiment
Experimental: Human sperm was collected from donors after ejaculation and used on the same day. Frozen human sperm was defrosted in a warm bath before starting the experiments. The regional ethical committee approved sample collection and use of human sperm. Both fresh and frozen human sperm were centrifuged, the supernatant was removed and the sperms were resuspended in HTF-like medium alone or with glycolic acid. Sperms were incubated with the 30 and 60 mM glycolic acid for 10 min before the measurements began. Measurements were performed by an experienced technician from the urology department.
as §2

[3] = 10 mM, 30 minutes after application, average stated for mouse and bull sperm

SMILES	minimum toxic dose [1]	increase in sperm motility (percentage of motile spermatozoids) (mouse sperm; [3]) [%]	increase in sperm progressivity (percentage of motile spermatozoids that move forward) (mouse sperm; [3]) [%]	time over which the enhancement is sustained (mouse sperm; both species)	difference in treated mouse sperm compared to controls (mouse sperm)	mitochondrial membrane potential [2]	increase in sperm motility (percentage of motile spermatozoids) (bull sperm; [3]) [%]	increase in sperm progressivity (percentage of motile spermatozoids that move forward) (bull sperm; [3]) [%]	bull sperm motility and progressivity at higher concentrations (bull sperm; 20 and 30 mM compared to 10 mM glycolic acid)	time over which the enhancement is sustained (bull sperm; both species)	sperm mobility, in particular sperm progressivity, at higher concentrations (bull sperm; concentrations up to 60 mM, data not shown)	sperm motility (FIG. 8), normalized to control at time-point 0 (bull sperm; defrosted bull sperm, significant (p<0.05) over whole experiment)	sperm motility (FIG. 8), normalized to control at time-point 0 (human sperm)
OCCOCCO [diethylene glycol]	0.14 mg glycolic acid per kg of body weight												
O=C(O)CO [Glycolic acid, 2-hydroxyethanoic acid]		19	28	up to 90 min	significance difference	did not increase	19	28	further increase	up to 90 min	increase	enhances sperm motility	enhances sperm motility
C[C@@H](O)C(=O)O [D-lactate, reference compound]					not								

Source: patent publication US20170239201A1, “GLYCOLIC ACID ENHANCES SPERM MOBILITY” (MAX-PLANCK-GESELLSCHAT ZUR FORDERUNG DER WISSENSCHAFTEN E.V., priority 2014, published 2017)
